Laboratory results from ChEMBL document CHEMBL1201862, “PubChem BioAssay data set” (2004).
The source made the active and inactive calls.

Columns and labels:
Steroidogenic factor 1 = Steroidogenic factor 1 (Homo sapiens, UniProt Q13285); assay: Counterscreen for inverse agonists of the liver receptor homolog-1 (LRH-1; NR5A2): Luminescence-based cell-based high throughput dose response assay to identify inverse agonists of the Steroidogenic Factor 1 Nuclear Receptor (SF1; NR5A1).; assay type: functional
[1] = target: Nuclear receptor subfamily 5 group A member 2 (Homo sapiens, UniProt O00482); assay type: functional, cell-based;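 further: HEK293T cells transfected with LRH-1 and a StAR promoter luciferase reporter; potency for inhibitors that lower LRH-1 driven reporter light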
[2] = nonselective StAR promoter luciferase inhibitors – cell-based, luminescence, luciferase reporter, counter-screen for LRH-1 inverse agonist project, dose response (AID 651969); assay type: functional
[3] = target: T1, Histone-lysine N-methyltransferase NSD2 (Homo sapiens, UniProt O96028); assay type: biochemical
T1 sequence (O96028 whole entry): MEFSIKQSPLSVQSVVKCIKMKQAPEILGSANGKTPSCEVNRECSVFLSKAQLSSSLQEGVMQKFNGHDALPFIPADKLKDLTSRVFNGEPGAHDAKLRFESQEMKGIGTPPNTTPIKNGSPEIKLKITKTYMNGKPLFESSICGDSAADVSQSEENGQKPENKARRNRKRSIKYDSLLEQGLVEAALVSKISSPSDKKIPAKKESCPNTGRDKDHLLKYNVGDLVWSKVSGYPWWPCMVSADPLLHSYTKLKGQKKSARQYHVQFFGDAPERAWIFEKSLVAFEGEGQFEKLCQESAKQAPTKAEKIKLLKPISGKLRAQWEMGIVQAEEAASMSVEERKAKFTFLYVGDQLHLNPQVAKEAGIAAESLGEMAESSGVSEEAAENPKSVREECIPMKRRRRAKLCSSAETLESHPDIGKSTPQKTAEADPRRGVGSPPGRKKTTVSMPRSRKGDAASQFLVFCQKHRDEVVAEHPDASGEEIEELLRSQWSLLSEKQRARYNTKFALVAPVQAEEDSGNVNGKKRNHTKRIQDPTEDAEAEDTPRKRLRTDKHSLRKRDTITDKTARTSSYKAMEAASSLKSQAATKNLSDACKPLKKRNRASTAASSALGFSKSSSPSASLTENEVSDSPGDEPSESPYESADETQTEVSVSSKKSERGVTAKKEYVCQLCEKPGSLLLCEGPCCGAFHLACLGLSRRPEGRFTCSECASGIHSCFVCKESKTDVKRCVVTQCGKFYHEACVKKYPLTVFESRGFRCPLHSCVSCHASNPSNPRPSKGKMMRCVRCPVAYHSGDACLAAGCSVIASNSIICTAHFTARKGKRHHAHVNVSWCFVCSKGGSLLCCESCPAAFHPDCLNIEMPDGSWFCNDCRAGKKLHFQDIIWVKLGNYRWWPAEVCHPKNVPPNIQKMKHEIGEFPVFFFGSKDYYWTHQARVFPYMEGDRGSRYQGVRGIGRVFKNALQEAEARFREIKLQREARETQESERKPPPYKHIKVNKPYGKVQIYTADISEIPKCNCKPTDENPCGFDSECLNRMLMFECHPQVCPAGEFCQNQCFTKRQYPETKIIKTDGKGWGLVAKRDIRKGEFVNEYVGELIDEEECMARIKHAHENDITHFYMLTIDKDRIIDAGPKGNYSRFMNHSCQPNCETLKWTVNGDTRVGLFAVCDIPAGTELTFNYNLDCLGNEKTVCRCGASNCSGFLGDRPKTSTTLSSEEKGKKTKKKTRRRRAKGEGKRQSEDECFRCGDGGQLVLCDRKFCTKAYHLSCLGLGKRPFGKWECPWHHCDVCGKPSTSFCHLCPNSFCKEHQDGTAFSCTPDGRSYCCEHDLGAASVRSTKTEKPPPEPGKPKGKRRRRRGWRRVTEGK

Protein Wnt-3a = Protein Wnt-3a (Mus musculus, UniProt P27467); assay: antagonism of Wnt3a pathway luciferase reporter – Wnt-LIGHT cells, luminescence, selectivity assay for Gli-SUFU antagonist project, dose response (AID 651570); assay type: functional; details: read-out: IC50_Mean;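 further: Wnt-LIGHT reporter cells stimulated with conditioned medium from Wnt3a-producing cells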
[4] = target: Adenosylmethionine-8-amino-7-oxononanoate aminotransferase (Mycobacterium tuberculosis, UniProt P9WQ81); assay: Mycobacterium tuberculosis BioA enzyme inhibitor Measured in Biochemical System Using Plate Reader - 2163-02_Inhibitor_Dose_CherryPick_Activity.; assay type: functional, Mycobacterium tuberculosis UT205
BJ [5] = assay: BJ-TERT-LT-ST fibroblast viability loss – cell-based, RAS-independent, luminescence, dose response (AID 1935); assay type: functional; details: Homo sapiens;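 further: BJ fibroblasts immortalized with TERT plus LT and ST oncogenes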
BJ [6] = assay: growth inhibition of engineered Ras-driven BJ cells – cell-based, alamar blue fluorescence, cherrypicked samples, dose response (AID 2631); assay type: functional; details: Homo sapiens;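 further: confirmatory dose-response assay in RAS-dependent BJ fibroblasts engineered with TERT, LT and ST, with cytotoxicity read by fluorescence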
[7] = DRD fibroblast viability loss – cell-based, non-viral oncogenic, luminescence, dose response (AID 1934); assay type: functional; details: Homo sapiens
BJ [8] = assay: cells; assay type: functional, cell-based; details: Homo sapiens
BJ [9] = assay: BJ-TERT fibroblast viability loss – cell-based, RAS-independent, luminescence, dose response (AID 1933); assay type: functional; details: Homo sapiens
[10] = blockers of HIV-1 envelope-mediated cell-cell fusion – cherry-pick, dose response (AID 652057); assay type: functional, cell-based
Cytochrome P450 2D6 = Cytochrome P450 2D6 (Homo sapiens, UniProt P10635);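 further: CYP2D6 member of a cytochrome P450 panel assay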
Cytochrome P450 2C19 = Cytochrome P450 2C19 (Homo sapiens, UniProt P33261); assay: Cytochrome panel assay with activity outcomes. Panel member name: p450-cyp2c19 Compounds with AC50 equal or less than 10 uM are considered active; assay type: functional; details: read-out: AC50
HEK293 = assay: EBV LMP1 TES2 canonical NF-kB signalling blockers – cell-based, HEK293, luciferase, cherry-pick, dose response (AID 588343); assay type: functional; details: Homo sapiens
Cytochrome P450 1A2 = target: T2, Cytochrome P450 1A2 (Homo sapiens, UniProt P05177);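 further: PubChem cytochrome P450 panel assay, CYP1A2 panel member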
T2 sequence (P05177 whole entry): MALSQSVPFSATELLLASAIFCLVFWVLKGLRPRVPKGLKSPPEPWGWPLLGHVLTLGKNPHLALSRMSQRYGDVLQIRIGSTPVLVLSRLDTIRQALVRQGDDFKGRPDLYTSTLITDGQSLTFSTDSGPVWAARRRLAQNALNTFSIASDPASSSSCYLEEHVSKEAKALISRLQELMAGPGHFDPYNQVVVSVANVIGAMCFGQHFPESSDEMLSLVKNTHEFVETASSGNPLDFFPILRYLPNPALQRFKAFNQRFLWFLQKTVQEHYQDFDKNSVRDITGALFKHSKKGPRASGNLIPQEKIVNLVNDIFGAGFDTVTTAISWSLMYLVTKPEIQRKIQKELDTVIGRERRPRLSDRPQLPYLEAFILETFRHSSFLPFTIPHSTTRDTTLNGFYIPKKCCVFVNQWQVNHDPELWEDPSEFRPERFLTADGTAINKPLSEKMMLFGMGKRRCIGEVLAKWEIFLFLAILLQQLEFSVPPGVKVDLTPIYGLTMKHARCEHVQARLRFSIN

[11] = HIV-1 AD8 envelope cell-cell fusion blockers – cherry-pick, dose response (AID 652062); assay type: functional, cell-based;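 further: luciferase signal from cell-cell fusion driven by HIV-1 clade B AD8 Env; potency is for inhibitors of fusion seen as a drop in luminescence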
[12] = target: T3, Latent membrane protein 1 (Human herpesvirus 4 (strain B95-8), UniProt P03230); assay: LMP1 TES1 pathway selectivity over dsRED control – imaging, HEK293T, dual-color eGFP/dsRED, cherry-picks, selectivity assay for LMP1 NF-kB inhibitor project, dose response (AID 588398); assay type: functional, cell-based
T3 sequence (P03230 whole entry): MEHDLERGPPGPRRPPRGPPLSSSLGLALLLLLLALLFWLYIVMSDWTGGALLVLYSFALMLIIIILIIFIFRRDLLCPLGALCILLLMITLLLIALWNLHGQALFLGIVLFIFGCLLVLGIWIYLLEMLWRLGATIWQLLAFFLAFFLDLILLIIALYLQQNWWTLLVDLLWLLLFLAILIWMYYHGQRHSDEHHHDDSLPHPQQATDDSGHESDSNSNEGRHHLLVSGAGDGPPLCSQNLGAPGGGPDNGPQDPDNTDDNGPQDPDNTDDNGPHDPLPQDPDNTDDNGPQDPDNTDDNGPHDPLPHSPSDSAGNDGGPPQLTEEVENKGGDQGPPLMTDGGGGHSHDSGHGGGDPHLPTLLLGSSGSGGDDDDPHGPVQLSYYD

Sequence of Adenosylmethionine-8-amino-7-oxononanoate aminotransferase (P9WQ81 whole entry): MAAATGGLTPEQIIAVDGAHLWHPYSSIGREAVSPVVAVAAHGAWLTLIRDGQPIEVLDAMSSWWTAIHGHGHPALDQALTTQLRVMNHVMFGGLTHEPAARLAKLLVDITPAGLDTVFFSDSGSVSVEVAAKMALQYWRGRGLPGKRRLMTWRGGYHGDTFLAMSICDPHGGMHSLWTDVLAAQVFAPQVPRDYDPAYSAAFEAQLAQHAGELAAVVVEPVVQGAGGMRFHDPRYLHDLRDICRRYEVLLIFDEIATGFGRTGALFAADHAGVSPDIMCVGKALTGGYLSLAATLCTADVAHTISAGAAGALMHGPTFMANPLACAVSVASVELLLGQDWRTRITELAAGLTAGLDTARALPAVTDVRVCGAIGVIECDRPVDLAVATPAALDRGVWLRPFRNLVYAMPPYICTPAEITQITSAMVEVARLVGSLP
Sequence of Cytochrome P450 2D6 (P10635 whole entry): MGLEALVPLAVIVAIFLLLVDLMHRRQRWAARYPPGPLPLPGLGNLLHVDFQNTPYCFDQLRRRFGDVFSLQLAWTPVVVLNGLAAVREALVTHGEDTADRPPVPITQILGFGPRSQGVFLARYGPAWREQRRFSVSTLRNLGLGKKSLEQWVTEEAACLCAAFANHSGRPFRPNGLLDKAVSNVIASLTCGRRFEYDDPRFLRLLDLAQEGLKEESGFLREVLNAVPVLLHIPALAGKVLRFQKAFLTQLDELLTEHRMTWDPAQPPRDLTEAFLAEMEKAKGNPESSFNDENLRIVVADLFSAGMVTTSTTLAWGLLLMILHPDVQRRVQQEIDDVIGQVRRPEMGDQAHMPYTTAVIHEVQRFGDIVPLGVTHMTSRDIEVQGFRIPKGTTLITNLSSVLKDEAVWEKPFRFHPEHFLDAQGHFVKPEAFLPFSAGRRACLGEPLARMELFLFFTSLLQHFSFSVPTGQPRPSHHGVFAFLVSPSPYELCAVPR
Sequence of Steroidogenic factor 1 (Q13285 whole entry): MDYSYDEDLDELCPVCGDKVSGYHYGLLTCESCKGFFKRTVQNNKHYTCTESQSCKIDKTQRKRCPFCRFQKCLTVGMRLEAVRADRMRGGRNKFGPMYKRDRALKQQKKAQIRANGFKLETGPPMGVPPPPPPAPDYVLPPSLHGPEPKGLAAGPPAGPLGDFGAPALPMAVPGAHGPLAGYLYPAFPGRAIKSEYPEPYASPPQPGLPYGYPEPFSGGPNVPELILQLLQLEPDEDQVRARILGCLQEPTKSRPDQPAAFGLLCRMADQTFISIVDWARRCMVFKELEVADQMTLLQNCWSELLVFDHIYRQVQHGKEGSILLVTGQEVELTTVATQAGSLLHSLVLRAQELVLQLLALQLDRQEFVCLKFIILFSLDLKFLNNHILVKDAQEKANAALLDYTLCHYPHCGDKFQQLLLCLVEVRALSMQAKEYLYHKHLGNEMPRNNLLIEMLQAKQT
Sequence of Nuclear receptor subfamily 5 group A member 2 (O00482 whole entry): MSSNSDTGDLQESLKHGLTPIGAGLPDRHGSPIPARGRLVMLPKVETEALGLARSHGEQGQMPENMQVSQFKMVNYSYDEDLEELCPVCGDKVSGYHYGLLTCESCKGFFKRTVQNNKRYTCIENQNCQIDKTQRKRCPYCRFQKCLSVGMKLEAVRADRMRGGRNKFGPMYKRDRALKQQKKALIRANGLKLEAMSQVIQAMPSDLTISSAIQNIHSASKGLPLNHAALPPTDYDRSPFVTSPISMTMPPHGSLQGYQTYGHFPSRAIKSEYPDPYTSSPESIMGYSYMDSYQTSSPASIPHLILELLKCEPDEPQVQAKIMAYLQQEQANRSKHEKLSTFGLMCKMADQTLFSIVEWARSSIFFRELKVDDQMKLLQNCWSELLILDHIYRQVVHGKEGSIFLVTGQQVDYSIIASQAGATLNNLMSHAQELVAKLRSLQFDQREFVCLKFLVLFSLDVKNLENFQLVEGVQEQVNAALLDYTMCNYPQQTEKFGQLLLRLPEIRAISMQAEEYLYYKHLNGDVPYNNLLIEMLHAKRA
Sequence of Cytochrome P450 2C19 (P33261 whole entry): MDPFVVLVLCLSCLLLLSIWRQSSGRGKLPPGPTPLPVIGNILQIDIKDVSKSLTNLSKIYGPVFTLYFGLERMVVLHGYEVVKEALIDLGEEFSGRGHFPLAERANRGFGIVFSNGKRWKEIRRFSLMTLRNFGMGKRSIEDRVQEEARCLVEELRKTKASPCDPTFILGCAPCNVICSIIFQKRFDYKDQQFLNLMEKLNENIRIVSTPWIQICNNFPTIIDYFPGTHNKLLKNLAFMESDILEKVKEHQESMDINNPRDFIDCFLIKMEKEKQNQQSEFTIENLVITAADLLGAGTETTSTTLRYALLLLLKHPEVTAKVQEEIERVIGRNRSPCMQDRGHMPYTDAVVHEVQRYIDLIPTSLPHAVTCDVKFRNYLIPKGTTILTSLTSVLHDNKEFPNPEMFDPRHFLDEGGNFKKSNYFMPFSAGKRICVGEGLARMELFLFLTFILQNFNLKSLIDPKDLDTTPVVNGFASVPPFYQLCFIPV
Sequence of Protein Wnt-3a (P27467 whole entry): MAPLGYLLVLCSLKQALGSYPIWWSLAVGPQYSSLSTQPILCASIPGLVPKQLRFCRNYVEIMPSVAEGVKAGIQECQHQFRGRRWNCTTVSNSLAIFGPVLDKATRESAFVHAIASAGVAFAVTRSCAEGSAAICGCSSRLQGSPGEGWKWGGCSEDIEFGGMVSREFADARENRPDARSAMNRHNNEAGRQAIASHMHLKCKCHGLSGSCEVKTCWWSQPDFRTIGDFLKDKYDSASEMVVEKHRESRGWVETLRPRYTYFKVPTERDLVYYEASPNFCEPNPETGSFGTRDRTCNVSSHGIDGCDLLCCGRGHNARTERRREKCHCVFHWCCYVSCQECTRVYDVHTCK

Structure (SMILES): O=C(NCC1CCCO1)c1ccc(NC(=O)c2cccc([N+](=O)[O-])c2)cc1 (centres undefined)
- IC50 (Steroidogenic factor 1): 1.32 µM (active)
- IC50 [1]: 3.99 µM (active)
- IC50 [2]: 35.9 µM (inactive)

Structure (SMILES): CCN1CCCC1CNc1[nH]cnc2c3cc(Cl)ccc3nc1-2 (centres undefined)
- AC50 [3]: > 20 µM (inactive)
- IC50 (Protein Wnt-3a): 50 µM (inactive)

Structure (SMILES): COc1ccc(Nc2c(-c3ccc(OC)cc3)nc3cnccn23)cc1
- AC50 [4]: 1.34 µM (active)

Structure (SMILES): COc1ccc(Cn2ccc(=O)c(Cc3c(Cl)cccc3Cl)c2C)cc1
- AC50 [4]: 7.22 µM (active)

Structure (SMILES): Cc1ccc(/C=C2\SC(=S)N(CCCC(=O)N3CCOCC3)C2=O)cc1
- EC50 (BJ [5]): > 150 µM (inconclusive)
- EC50 (BJ [6]): > 66.7 µM (inactive)
- EC50 [7]: 15.3 µM (active)
- EC50 (BJ [8]): > 150 µM (not active)
- EC50 (BJ [9]): 7.06 µM (inconclusive)

Structure (SMILES): COc1ccc(S(=O)(=O)NNC(=O)C2Cc3c(ccc4ccccc34)O2)cc1 (centres undefined)
- AC50 [10]: 43.7 µM (active)
- AC50 (Cytochrome P450 2D6): 39.8 µM (inconclusive)
- AC50 (Cytochrome P450 2C19): 5.62 µM (inconclusive)
- AC50 (HEK293): > 350 µM (inactive)
- AC50 (Cytochrome P450 1A2): 25.1 µM (inconclusive)
- AC50 [11]: 13.2 µM (active)
- AC50 [12]: 74.8 µM (active)
